In data set [1] the test system is T1, human CMG helicase (Cdc45-MCM-GINS; Mcm2-7 ATPase core).
T1 construct: 11-subunit hCMG holoenzyme co-expressed by baculovirus in insect cells (Cdc45, Mcm2-7, GINS); with Cdc45 and GINS (Sld5, Psf1, Psf2, Psf3)
Nature of the data set: DNA fork-unwinding helicase assay, dose-dependent suppression. It counts as biochemical.

Data set [2] concerns T2, Nc1ncnc2c1ncn2[C@@H]1O[C@H](COP(=O)(O)OP(=O)(O)OP(=O)(O)O)[C@@H](O)[C@H]1O.
T2 construct: 11-subunit hCMG holoenzyme co-expressed by baculovirus in insect cells (Cdc45, Mcm2-7, GINS); with Cdc45 and GINS (Sld5, Psf1, Psf2, Psf3)
Nature of the data set: helicase kinetics with increasing ATP (Km). Format: biochemical, Homo sapiens. The settings on record: Mg2+ MCM ATPase clefts formed between adjacent MCM subunit pairs.

Take `Nc1ncnc2c1ncn2[C@@H]1O[C@H](COP(=O)(O)OP(=O)(O)OP(O)(O)=S)[C@@H](O)[C@H]1O` [ATP-γ-S]: in data set [1], the “DNA fork-unwinding helicase assay, dose-dependent suppression” value is on record as “dose-dependent suppression of fork-unwinding activity in the presence of slow-hydrolyzable ATP-γ-S”.
Usually Km stands for the concentration of substrate that gives half-maximal velocity. As for “human CMG helicase (Cdc45-MCM-GINS; Mcm2-7 ATPase core) (Homo sapiens)”, the Km in data set [2] was 690 µM.
